Data published in patent US6811766B1, “Ultrasound imaging with contrast agent targeted to microvasculature and a vasodilator drug” (Amersham Health AS, priority 1997, dated 2004).

What was measured:
[1] = tested on: healthy myocardial tissue; details: adenosine vasodilatation; cited from earlier work
[2] = Heart rate under continuous dobutamine infusion; assay type: in vivo; details: dog, continuous dobutamine infusion 15 μg/kg/min, stable effect; normal 100 beats per minute
Protocol: Example 1 was repeated except that a continuous infusion of dobutamine at a rate of 15 μg/kg/min was administered in place of adenosine. After a stable dobutamine effect consisting of an increase in heart rate from the normal 100 beats per minute to 150 beats per minute was obtained, the microbubble dispersion and the emulsion were intravenously injected from two syringes as a simultaneous bolus. Infusion of dobutamine was continued for another 2 minutes after the contrast agent injection.

| Compound | increase of coronary blood flow in healthy myocardial tissue [1] | heart rate [2] [beats per minute] |
| --- | --- | --- |
| Nc1ncnc2c1ncn2[C@@H]1O[C@H](CO)[C@@H](O)[C@H]1O [adenosine] | more than 400% | – |
| CC(CCc1ccc(O)cc1)NCCc1ccc(O)c(O)c1 (centres unmarked) [dobutamine] | – | 150 |
